Measurements: patent US20070160527A1, “Use of n-acetyl-d-aminoglycosamine in treatment of local lesions or systematic symptoms related to autoimmune reactions” (priority 2003, published 2007)

How the values were obtained:
[1] = system: Proteus Mirabilis; assay: Promoting wave test (bio-wave model); type: cell-based; settings: final concentration 0.5% in LB plate, 37° C., 9 hours, compared with control sample
Excerpt: • 1. […] (+). […] Experimental results and evaluation:

[2] = system: B16 tumor cells; assay: Cytological test of regulating micro-heterology variation; type: cell-based; settings: final concentration 1 g/100 ml, incomplete 1640 medium, continued culture more than 48 hours; control cells could not proliferate
Method: Conventional incomplete 1640 culture media were used for cell culture, and B16 tumor cells (commericially obtained from the tumor cell library of Shanghai Institute of Cytobiology) were inoculated on said media. After continue culture for more than 48 hours, the micro-heterology variation of cells and the control effects of N-acetyl-D-glucosamine thereon were observed under a condition where metabolic wastes affected the growth environment. […] The control cells cultured without N-acetyl-D-glucosamine could not proliferate on the same culture media under same conditions.

[3] = in vivo
Excerpt: The toxicological test of the compound of formula (I) includes: • 1. Acute toxicity test: including tests of oral administration, intravenous injection administration, and maximum limit amount for administration; • 2. Ames test; • 3. Micronucleus test of mouse bone marrow cell; • 4. Abnormality test of mouse sperm; • 5. Aberration test of mouse testis chromosome; • 6. Chronic lethal test; • 7. Sub-chronic toxicity (feed for 90 days) test; • 8. Traditional deformity-inducing test.

[4] = Treatment of a patient with systemic lupus erythematosus; type: in vivo, human; settings: one patient, capsules 100 mg, 3 times per day, 7 days
Method: Patient who had definite systemic lupus erythematosus, was administered with capsules of the compound of formula (1) for consecutive 7 days, 3 times per day, and 100 mg every time, during the period of hospitalization.

[5] = Treatment of a patient with hyperthyroidism; type: in vivo, human; settings: one patient, capsules 100 mg, 3 times per day, 7 days
Method: Patient was administered with capsules of the compound of formula (1) for consecutive 7 days, 3 times per day, and 100 mg every time, during the period of treating diarrhea.

[6] = system: B16 tumor cells; assay: Animal test of regulating micro-heterology variation (B16 tumor cells inoculated on hind legs); type: in vivo, rats; settings: 7 days, 3 times per day; for control of micro-heterology variation compared with the control group: rats inoculated with B16 tumor cells, intra-peritoneal, 1 ml
Excerpt: In control group without the administration of the compound of formula (1), many proliferative corpuscles appeared in at least 40 among 50 rats within 1-3 days after the tumor cells were inoculated; many immature cells appeared within 3-5 days; and visible solid tumors finally appeared within about 10 days.

Structure (SMILES)	bio-wave pattern of bacterial growth (promoting wave function) [1]	cell proliferation under a condition where metabolic wastes affected the growth environment [2]	dosage at which the acute toxicosis reaction had not appeared [3]	patient's symptom [4]	therapeutical effect on hyperthyroidism (confirmed by T3 and T4 in serum) [5]	number of rats in which solid tumor did not appear ([6]; 50 rats, 5% aqueous solution intra-peritoneally, 1 ml every time)	control of micro-heterology variation compared with the control group [6]
CC(=O)N[C@@H]1[C@@H](O)[C@H](O)[C@@H](CO)O[C@H]1O [compound of formula (I), N-acetyl-D-glucosamine]	finer wave mode	cell number stably increased with the culture time	more than 2 g/kg	remitted in some extent	better effect of treating hyperthyroidism	45	could control the micro-heterology variation
CC(=O)N[C@H]1C(O)O[C@H](CO)[C@@H](O)[C@@H]1O.Cl (stereo partly drawn) [N-acetyl-D-glucosamine hydrochloride]	–	cells could proliferate continuously	–	–	–	–	exhibited function of controlling micro-heterology variation
